What was measured:
[1] = test system: mouse Mito-DsRed BMSCs or CD8+ T cells; assay: Inhibitor drug treatment study, mouse co-culture; assay type: cell-based; conditions: 1-10 μM, data not shown
Method: (§1) For pharmacological inhibition studies, both mouse and human Mito-DsRed BMSCs or CD8+ T cells were treated with 1-10 μM of farnesyltransferase/geranylgeranyltransferase 1 inhibitor (L-778123) (Biomol) incubated separately in their respective basal media for 7 hrs before or during co-culture. Cell viability of the different drug treatments was determined using the Trypan Blue exclusion test and quantified manually using a hemacytometer. All experiments were performed on at least 3-6 biological replicates/donors per condition.

[2] = test system: human Mito-DsRed BMSCs or CD8+ T cells; assay: Inhibitor drug treatment study, human co-culture; assay type: cell-based; conditions: 1-10 μM, data not shown
Method: as §1

[3] = test system: nanotube-mediated mitochondria transfer; conditions: Nature Nanotechnology (2022) 17, 98-106; cited from earlier work

N#Cc1ccc(Cn2cncc2CN2CCN(c3cccc(Cl)c3)C(=O)C2)cc1 [L-788,123]
mitochondrial transfer in co-culture [1]: confirmed that TNTs is a primary mediator of mitochondrial transfer
mitochondrial transfer in co-culture [2]: confirmed that TNTs is a primary mediator of mitochondrial transfer
nanotube-mediated mitochondria transfer [3]: partially block

From patent publication US20250381273A1, “Augmenting Mitochondria in Immune Cells for Improved Cancer Immunotherapy” (LEIBNIZ-INSTITUT FÜR IMMUNTHERAPIE (LIT), priority 2022, published 2025)
